Measurements taken from US5574043A, “Certain [1,2,5-thiadiazol-4-yl]-1-azabicyclo [3.2.1]octane derivatives and their pharmaceutical uses” (Novo Nordisk A/S, priority 1995, dated 1996).
Counter-ions that a name gives are not always drawn.

Biological target: muscarinic acetylcholine receptors
Assay: Inhibition of specific binding of 3H-Oxotremorine-M (OXO BINDING) in vitro, rat cortex
Design: species or system male Wistar rats
Conditions: rat cortex homogenate, 3H-Oxotremorine 1.0 nM, 30 min at 25° C., pH 7.4
Description: The pharmacological properties of the compounds of the invention can be illustrated by determining their capability to inhibit the specific binding of ^3 H-Oxotremorine-M (^3 H-Oxo). Birdsdall N. J. M., Hulme E. C., and Burgen A. S. V. (1980). "The Character of Muscarinic Receptors in Different Regions of the Rat Brain". Proc. Roy. Soc. London (Series B) 207,1.
^3 H-Oxo labels muscarinic receptor in the CNS (with a preference for agonist domains of the receptors). Three different sites are labelled by ^3 H-Oxo. […] Using the present experimental conditions only the high and medium affinity sites are determined.
The inhibitory effects of compounds on ^3 H-Oxo binding reflects the affinity for muscarinic acetylcholine receptors.
All preparations are performed at 0°-4° C. unless otherwise indicated. Fresh cortex (0.1-1 g) from male Wistar rats (150-250 g) is homogenized for 5-10 s in 10 ml 20 mM Hepes pH: 7.4, with an Ultra-Turrax homogenizer. The homogenizer, is rinsed with 10 ml of buffer and the combined suspension centrifuged for 15 min at 40,000×g. The pellet is washed three times with buffer. In each step the pellet is homogenized as before in 2×10 ml of buffer and centrifuged for 10 min at 40,000×g.
The final pellet is homogenized in 20 mM Hepes pH: 7.4 (100 ml per g of original tissue) and used for binding assay. Aliquots of 0.5 ml is added 25 μl of test solution and 25 μl of ^3 H-Oxotremorine (1.0 nM, final concentration) mixed and incubated for 30 min at 25° C. Non-specific binding is determined in triplicate using arecoline (1 μg/ml, final concentration) as the test substance. After incubation samples are added 5 ml of ice-cold buffer and poured directly onto Whatman GF/C glass fibre filters under suction and immediately washed 2 times with 5 ml of ice-cold buffer. The amount of radioactivity on the filters are determined by conventional liquid scintillation counting. Specific binding is total binding minus non specific binding.
Test substances are dissolved in 10 ml water (if necessary heated on a steam bath for less than 5 minutes) at a concentration of 2.2 mg/ml.
The test value will be given as IC50 (the concentration (ng/ml) of the test substance which inhibits the specific binding of ^3 H-Oxo by 50%).
IC50 =(applied test substance concentration) [formula] where Co is specific binding in control assays and Cx is the specific binding in the test assay. (The calculations assume normal mass-action kinetics).

| SMILES | Inhibition in vitro OXO BINDING IC50 [ng/mL] |
| --- | --- |
| Clc1nsnc1[C@@H]1CN2CCC[C@@H]1C2 (relative stereo) [Compound 15, Exo-6-(3-chloro-1,2,5-thiadiazol-4-yl)-1-azabicyclo[3.2.1]octane] | 0.61 |
| ClC1=C(c2cnsn2)CN2CCCC1C2.O=C(O)C(=O)O (stereo not drawn) [Compound 65, 4-Chloro-3-(1,2,5-thiadiazol-4-yl)-1-azabicyclo[3.3.1]non-3-ene oxalate] | 9.6 |
| COc1nsnc1C1=CC2CCCN(C1)C2.O=C(O)C(=O)O (stereo not drawn) [Compound 96, 3-(3-Methoxy-1,2,5-thiadiazol-4-yl)-1-azabicyclo[3.3.1]non-3-ene oxalate] | 0.3 |
| c1ccc(OCCSc2nsnc2[C@@H]2CN3CCC[C@H]2C3)cc1 (relative stereo) [Compound 84, Endo-6-(3-(2-phenoxyethylthio)-1,2,5-thiadiazol-4-yl)-1-azabicyclo[3.2.1]octane oxalate] | 13 |
| CCCOc1nsnc1[C@@H]1CN2CCC[C@@H]1C2 (relative stereo) [Compound 119, Exo-6-(3-propoxy-1,2,5-thiadiazol-4-yl)-1-azabicyclo[3.2.1]octane oxalate] | 0.30 |
| N#CCSc1nsnc1C1CN2CCC1CC2.O=C(O)C(=O)O (stereo not drawn) [Compound 103, 3-(3-Cyanomethylthio-1,2,5-thiadiazol-4-yl)-1-azabicyclo[2.2.2]octane oxalate] | 0.92 |
| CC(C)CCSc1nsnc1[C@H]1CN2CCC[C@H]1C2 (relative stereo) [Compound 77, Exo-6-(3-isopentylthio-1,2,5-thiadiazol-4-yl)-1-azabicyclo[3.2.1]octane] | 0.89 |
| O=C(O)/C=C/C(=O)O.c1ccc(OCCSc2nsnc2C2CN3CCC2CC3)cc1 (stereo not drawn) [Compound 102, 3-(3-(2-Phenoxyethylthio)-1,2,5-thiadiazol-4-yl)-1-azabicyclo[2.2.2]octane fumarate] | 1.52 |
| CCCCCCSc1nsnc1C12CCCN(CC1)C2.O=C(O)C(=O)O (stereo not drawn) [Compound 68, 5-(3-Hexylthio-1,2,5-thiadiazol-4-yl)-1-azabicyclo[3.2.1]octane oxalate] | 0.69 |
| O=C(O)/C=C/C(=O)O.c1ccc(CCCSc2nsnc2C2CN3CCC2CC3)cc1 (stereo not drawn) [Compound 44, 3-(3-(3-Phenylpropylthio)-1,2,5-thiadiazol-4-yl)-1-azabicyclo[2.2.2]octane fumarate] | 4.7 |
| CCCSc1nsnc1[C@H]1CN2CC[C@H]1C2 (relative stereo) [Compound 40, Exo-3-(3-propylthio-1,2,5-thiadiazol-4-yl)-1-azabicyclo[2.2.1]heptane oxalate] | 0.19 |
| CCC(C)Sc1nsnc1C1CN2CCC1CC2.O=C(O)/C=C/C(=O)O (stereo not drawn) [Compound 100, 3-(3-(1-Methylpropylthio)-1,2,5-thiadiazol-4-yl)-1-azabicyclo[2.2.2]octane fumarate] | 0.82 |
| CCCCCSc1nsnc1[C@H]1CN2CCC[C@@H]1C2 (relative stereo) [Compound 26, Endo-6-(3-pentylthio-1,2,5-thiadiazol-4-yl)-1-azabicyclo[3.2.1]octane oxalate] | 1.4 |
| CCCCOc1nsnc1C1=CC2CCCN(C1)C2.O=C(O)C(=O)O (stereo not drawn) [Compound 95, 3-(3-Butoxy-1,2,5-thiadiazol-4-yl)-1-azabicyclo[3.3.1]non-3-ene oxalate] | 1.7 |
| CC(C)CCCSc1nsnc1[C@H]1CN2CCC[C@H]1C2 (relative stereo) [Compound 76, Exo-6-(3-isohexylthio-1,2,5-thiadiazol-4-yl)-1-azabicyclo[3.2.1]octane oxalate] | 2.6 |
| N#CCCCSc1nsnc1[C@H]1CN2CCC[C@@H]1C2 (relative stereo) [Compound 91, Endo-6-(3-(3-cyanopropylthio)-1,2,5-thiadiazol-4-yl)-1-azabicyclo[3.2.1]octane oxalate] | 5.2 |
| CC(C)CCOc1nsnc1C1CN2CCC1CC2.O=C(O)C(=O)O (stereo not drawn) [Compound 51, 3-(3-Isopentyloxy-1,2,5-thiadiazol-4-yl)-1-azabicyclo[2.2.2]octane oxalate] | 0.89 |

| SMILES | Inhibition in vitro OXO BINDING IC50 [ng/mL] |
| --- | --- |
| CCCCCCOc1nsnc1C1=CC2CCCN(C1)C2.O=C(O)C(=O)O (stereo not drawn) [Compound 98, 3-(3-Hexyloxy-1,2,5-thiadiazol-4-yl)-1-azabicyclo[3.3.1]non-3-ene oxalate] | 1.0 |
| CCCCSc1nsnc1[C@H]1CN2CC[C@H]1C2 (relative stereo) [Compound 42, Exo-3-(3-butylthio-1,2,5-thiadiazol-4-yl)-1-azabicyclo[2.2.1]heptane oxalate] | 0.35 |
| CCCCCCOc1nsnc1C1=C(Cl)C2CCCN(C1)C2.Cl (stereo not drawn) [Compound 94, 4-Chloro-3-(3-hexyloxy-1,2,5-thiadiazol-4-yl)-1-azabicyclo[3.3.1]non-3-ene hydrochloride] | 12 |
| c1ccc(CSc2nsnc2[C@H]2CN3CCC[C@H]2C3)cc1 (relative stereo) [Compound 134, Exo-6-(3-benzylthio-1,2,5-thiadiazol-4-yl)-1-azabicyclo[3.2.1]octane oxalate] | 0.47 |
| CCCCOc1nsnc1[C@@H]1CN2CCC[C@@H]1C2 (relative stereo) [Compound 120, Exo-6-(3-butoxy-1,2,5-thiadiazol-4-yl)-1-azabicyclo[3.2.1]octane oxalate] | 0.28 |
| CCCSc1nsnc1[C@@H]1CN2CCC[C@@H]1C2 (single isomer, unassigned) [Compound 114, (-)-Exo-6-(3-propylthio-1,2,5-thiadiazol-4-yl)-1-azabicyclo[3.2.1]octane (-) D-tartrate] | 0.15 |
| C=CCCCCOc1nsnc1C1CN2CCC1CC2.O=C(O)/C=C/C(=O)O (stereo not drawn) [Compound 48, 3-(3-(5-Hexenyloxy)-1,2,5-thiadiazol-4-yl)-1-azabicyclo[2.2.2]octane fumarate] | 0.43 |
| CCSc1nsnc1C1CN2CCC1CC2.O=C(O)C(=O)O (stereo not drawn) [Compound 52, 3-(3-Ethylthio-1,2,5-thiadiazol-4-yl)-1-azabicyclo[2.2.2]octane oxalate] | 0.61 |
| CCCOc1nsnc1C1=C(Cl)C2CCCN(C1)C2 (stereo not drawn) [Compound 62, 4-Chloro-3-(3-propyloxy-1,2,5-thiadiazol-4-yl)-1-azabicyclo[3.3.1]non-3-eneoxalate] | 1.9 |
| CCOc1nsnc1[C@@H]1CN2CCC[C@@H]1C2 (relative stereo) [Compound 118, Exo-6-(3-ethoxy-1,2,5-thiadiazol-4-yl)-1-azabicyclo[3.2.1]octane oxalate] | 0.35 |
| c1ccc(CCCSc2nsnc2[C@H]2CN3CCC[C@@H]2C3)cc1 (relative stereo) [Compound 27, Endo-6-(3-(3-phenylpropylthio)-1,2,5-thiadiazol-4-yl)-1-azabicyclo[3.2.1]octane oxalate] | 17 |
| CCCSc1nsnc1[C@@H]1CN2CCC[C@@H]1C2 (single isomer, unassigned) [Compound 113, (+)-Exo-6-(3-propylthio-1,2,5-thiadiazol-4-yl)-1-azabicyclo[3.2.1]octane (+) L-tartrate] | 0.26 |
| CCCCCCOc1nsnc1C1CN2CCC1CC2.O=C(O)/C=C/C(=O)O (stereo not drawn) [Compound 11, 3-(3-Hexyloxy-1,2,5-thiadiazol-4-yl)-1-azabicyclo[2.2.2]octane fumarate] | 1.2 |
| COc1nsnc1C1(OC)CN2CCC1CC2.O=C(O)C(=O)O (stereo not drawn) [Compound 3, 3-Methoxy-3-(3-methoxy-1,2,5-thiadiazol-4-yl)-1-azabicyclo[2.2.2]octane oxalate] | 208 |
| CCCCSc1nsnc1C1CN2CCC1CC2.O=C(O)/C=C/C(=O)O (stereo not drawn) [Compound 13, 3-(3-Butylthio-1,2,5-thiadiazol-4-yl)-1-azabicyclo[2.2.2]octane fumarate] | 0.65 |
| N#Cc1ccc(CSc2nsnc2[C@H]2CN3CCC[C@@H]2C3)cc1 (relative stereo) [Compound 28, Endo-6-(3-(4-cyanobenzylthio)-1,2,5-thiadiazol-4-yl)-1-azabicyclo[3.2.1]octane oxalate] | 1.9 |
